We go through five compounds from patent US7642269B2, “Pyrrolo[3,2-B]pyridine derivatives and processes for the preparation thereof” (Yuhan Corporation, priority 2005, dated 2010).

One assay has as its target T1, H^+/K^+-ATPase (Sus scrofa, UniProt P19156).
T1 construct: used as an enzyme source of the in vitro enzyme reaction assay of proton pump; from tissue; host or cells: hog gastric fundic mucosa (membrane vesicles, lyophilized)
Nature of the assay: Inhibitory effects on proton pump (H^+/K^+-ATPase) activity, hog gastric vesicles. Format: biochemical. The following applies: K^+ stimulated H^+/K^+-ATPase activity, hog gastric vesicle, Pi measured at 620 nm. Put shortly: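 Lyophilized hog gastric vesicles in Pipes/Tris pH 6.1 were preincubated 5 min with compounds (1% DMSO), then run with ATP for 30 min at 37 °C. Released phosphate was measured by malachite green at 620 nm; K^+-stimulated activity taken as the difference between reactions with and without K^+.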

The target in assay [1] is T2, hog gastric H^+/K^+-ATPase (Sus scrofa, UniProt P19156).
T2 construct: from tissue; host or cells: hog fundic mucosa (gastric vesicles / microsomes, lyophilized)
T2 sequence (P19156 2-1034 limits assumed): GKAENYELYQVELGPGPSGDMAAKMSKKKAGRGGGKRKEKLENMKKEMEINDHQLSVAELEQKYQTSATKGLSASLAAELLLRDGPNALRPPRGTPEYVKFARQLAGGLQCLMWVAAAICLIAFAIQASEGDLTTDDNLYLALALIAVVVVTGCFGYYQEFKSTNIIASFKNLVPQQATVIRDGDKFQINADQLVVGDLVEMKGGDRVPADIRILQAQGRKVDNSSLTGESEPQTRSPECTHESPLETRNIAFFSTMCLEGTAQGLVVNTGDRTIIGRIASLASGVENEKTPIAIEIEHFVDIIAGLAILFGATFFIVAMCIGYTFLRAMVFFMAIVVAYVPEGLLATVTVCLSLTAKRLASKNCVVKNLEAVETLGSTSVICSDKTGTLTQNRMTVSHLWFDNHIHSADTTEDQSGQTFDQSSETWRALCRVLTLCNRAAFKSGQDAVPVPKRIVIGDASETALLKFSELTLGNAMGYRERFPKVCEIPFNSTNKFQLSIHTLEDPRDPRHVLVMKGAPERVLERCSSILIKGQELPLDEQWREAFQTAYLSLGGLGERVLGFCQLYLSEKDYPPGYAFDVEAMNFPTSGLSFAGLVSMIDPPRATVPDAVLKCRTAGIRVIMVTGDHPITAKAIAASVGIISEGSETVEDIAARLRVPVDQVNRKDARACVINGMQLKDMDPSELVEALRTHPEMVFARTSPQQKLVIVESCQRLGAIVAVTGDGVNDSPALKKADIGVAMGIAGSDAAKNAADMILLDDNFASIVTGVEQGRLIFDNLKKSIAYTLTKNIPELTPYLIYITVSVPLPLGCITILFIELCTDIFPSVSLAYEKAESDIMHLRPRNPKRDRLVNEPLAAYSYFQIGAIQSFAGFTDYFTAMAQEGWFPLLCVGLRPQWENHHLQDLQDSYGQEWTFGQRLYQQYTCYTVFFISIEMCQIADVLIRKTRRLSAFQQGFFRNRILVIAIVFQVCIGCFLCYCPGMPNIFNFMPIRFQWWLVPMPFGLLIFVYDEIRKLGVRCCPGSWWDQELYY
T2 sequence (P18434 whole entry partner): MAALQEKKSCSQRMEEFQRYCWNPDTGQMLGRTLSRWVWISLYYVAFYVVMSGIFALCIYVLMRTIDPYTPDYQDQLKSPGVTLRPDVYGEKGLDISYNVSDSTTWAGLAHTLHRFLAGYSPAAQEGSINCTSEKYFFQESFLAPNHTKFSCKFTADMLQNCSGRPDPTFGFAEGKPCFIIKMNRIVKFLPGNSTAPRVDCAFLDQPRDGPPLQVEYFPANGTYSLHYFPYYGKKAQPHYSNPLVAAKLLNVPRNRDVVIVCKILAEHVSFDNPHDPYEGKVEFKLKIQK
The assay is described as follows: Reversible inhibition of hog gastric H^+/K^+-ATPase (Washout method). The following applies: for inhibition of H^+/K^+-ATPase activity after washout: activity completely recovered to non-treated group level; for inhibition of H^+/K^+-ATPase activity before washout: at the concentration giving 50% inhibition of the proton pump. Type of assay: biochemical. The protocol: 3-1. […] Gastric vesicles were prepared from hog fundic mucosa using the method of Saccomani et al. (Saccomani […], Lewin M and Sachs G, Characterization of gastric mucosal membranes. IX. Fraction and purification of K-ATPase-containing vesicles by zonal centrifugation and free-flow electrophoresis technique. Biochem. Biophy. Acta. (BBA)-Biomembranes 465, 311-330, 1977.). This material was lyophilized and stored at -70° C. The protein content of gastric vesicles was determined by the Bradford method using bovine serum albumin as a standard (Bradford M M, A rapid and sensitive method for the quantitation of microgram quantities of protein utilizing the principle of protein-dye binding. Anal Biochem. 72, 248-254, 1976). 3-2. Determination of reversible inhibition of hog gastric H^+/K^+-ATPase Activity of H^+/K^+-ATPase in hog microsome (lyophilized vesicle) was measured by the inorganic phosphate released from ATP using an one-step colorimetric detection method at the concentration at which the test compounds have 50% inhibition of the proton pump (Chan […], and Junger K D, A direct colorimetric assay for Ca^2+-stimulated ATPase activity. Anal Biochem, 157, 375-380, 1986). […] Differentiation of their inhibition characteristics from those of omeprazole. Eur. J. Pharmacol., 187, 455-67, 1990). Lyophilized vesicle in the solution of 5 mM Pipes/Tris buffer was pre-incubated in the presence of the test compounds (the compounds of Examples 50, 64, and 94) at the concentration at which it has 50% inhibition of the proton pump. The previous reaction buffer was added with 2 mM MgCl2, 50 mM KCl, 5 uM Valinomycin, and 0.5 mM ATP and then incubated for 30 minutes at 37° C. The H^+/K^+-ATPase activity was measured using the calorimetric detection method and then the test sample was centrifuged at 100,000×g for 1 hr. The vesicles are present in the form of pellets in the test sample. The supernatant thereof was replaced with the same buffer not having the test compound. […] The H^+/K^+-ATPase activity was also measured using the calorimetric detection method. The H^+/K^+-ATPase activity before washout and after washout in the test sample was analyzed, in comparison with those in the non-treated group.

In assay [2] the test system is basal gastric acid secretion. The assay is described as follows: Inhibitory effects on basal gastric acid secretion in pylorus-ligated rats (Shay's rat model). Type of assay: in vivo, Sprague Dawley (SD) rats. The settings on record: oral, one hour before pylorus ligation, total acid output 5 hours after ligation, male SD rats. On the procedure:
Inhibitory effects of the compounds of the present invention on basal gastric acid secretion were performed according to Shay's rat model (Shay, H., et al., 1945, gastroenterology, 5, 43-61). Male Sprague Dawley (SD) rats (200±10 g body weight) were divided into 3 groups (n=5) and fasted for 24 hours with free access to water. Control group was orally administered with 0.5% methylcellulose alone and the other groups were orally administered with test compounds suspended in 0.5% methyl-cellulose solution at doses of 1, 3 and 10 mg/kg/5 ml one hour before pylorus ligation. Under ether anesthesia, the abdomens of the rats were incised and then the pylorus was ligated. 5 hours after ligation, the animals were sacrificed, and the gastric contents were collected. The collected contents were centrifuged at 1,000×g for 10 minutes to obtain the gastric juice. Total acid output was measured by 0.01N NaOH volume (ueq/ml) for automatic titration of the gastric juice to pH 7.0 and the ED50s of test compounds were calculated using the Litchfield-Wilcoxon method. % inhibitory activity was calculated from the following equation and the results are shown in Table 2. % inhibitory activity of test compound=(total acid output of control group−total acid output of the group treated with test compounds)/total acid output of control group X 100

T1 sequence (P19156 2-1034 limits assumed): as the sequence (P19156 2-1034 limits assumed) above
T1 sequence (P18434 whole entry partner): as the sequence (P18434 whole entry partner) above

`COC(=O)c1ccc(Cn2c(C)c(C)c3nccc(OCc4ccc(Cl)cc4)c32)cc1.Cl` [Example 94, 7-(4-chlorobenzyloxy)-1-(4-methoxycarbonylbenzyl)-2,3-dimethyl-1H-pyrrolo[3,2-b]pyridine hydrochloride]: it took 890 nM to reach half-maximal inhibition on H^+/K^+-ATPase (IC50). In addition, in assay [1], the “inhibition of H^+/K^+-ATPase activity after washout” value (“inhibition … after washout” below) was “did not inhibit” and the “inhibition of H^+/K^+-ATPase activity before washout” value was 50%.
`COCCn1c(C)c(C)c2nccc(OCc3ccc(F)cc3)c21.Cl` [Example 61, 7-(4-fluorobenzyloxy)-1-(2-methoxyethyl)-2,3-dimethyl-1H-pyrrolo[3,2-b]pyridine hydrochloride] yielded an IC50 against H^+/K^+-ATPase of 100 nM. This compound also registered an ED50 in assay [2] of 3 mg/kg.
`Cc1c(C)n(Cc2ccccc2)c2c(OCc3ccc(Cl)cc3)ccnc12.Cl` [Example 73, 1-benzyl-7-(4-chlorobenzyloxy)-2,3-dimethyl-1H-pyrrolo[3,2-b]pyridine hydrochloride]: the IC50 on H^+/K^+-ATPase is 40 nM. The same compound yielded an ED50 in assay [2] of 2.5 mg/kg.
For `Cc1c(C)n(Cc2ccccc2)c2c(OCc3ccc(F)cc3)ccnc12.O=S(=O)(O)c1ccccc1` [Example 64, 1-benzyl-7-(4-fluorobenzyloxy)-2,3-dimethyl-1H-pyrrolo[3,2-b]pyridine benzenesulfonate], the “inhibition … after washout” value in assay [1] is listed as “did not inhibit”.
Regarding `Cc1c(C)n(CC(C)C)c2c(OCc3ccc(F)cc3)ccnc12.Cl` [Example 50, 7-(4-fluorobenzyloxy)-1-isobutyl-2,3-dimethyl-1H-pyrrolo[3,2-b]pyridine hydrochloride], the IC50 against H^+/K^+-ATPase was 2440 nM. This compound had a 50% effective dose (ED50) in assay [2] of 2.4 mg/kg. For the same compound, in assay [1], the “inhibition … after washout” value is “did not inhibit” and the “inhibition of H^+/K^+-ATPase activity before washout” value came to 50%.
